Patent US12479927B2, “Compounds comprising cleavable linker and uses thereof” (priority 2017, dated 2025)
Like-named read-outs stand apart in the source and are kept apart here. Non-standard residues stand in square brackets, D forms with d. Residues, ends and D or L forms follow the SMILES beside them. Dolaproine = CO[C@@H]([C@@H]1CCCN1)[C@@H](C)C(=O)O; Dil = CC[C@H](C)[C@H](NC)[C@@H](CC(=O)O)OC; NMeV = CN[C@H](C(=O)O)C(C)C

Columns and labels:
KB cancer cells [1] = assay: cells; type: cell-based
Protocol: KB cancer cells were collected and seeded in 24-well plates at a density of 30,000 cells per well in 2 mL of medium, and cultured for 24 hours. Then, the serial dilutions of compound C-1 obtained in Example 108 were treated from 30 nM to 0.0096 nM, the serial dilutions of compound C-2 obtained in Example 109 were treated from 1000 nM to 0.32 nM, serial dilutions of the compound C-3 obtained in Example 110 and the compound C-7 obtained in Example 114 were treated from 25 nM to 0.0016 nM, and serial dilutions of the drug MMAF-OMe were treated from 10 nM to 0.0097 nM. The serial dilutions of compounds C-5 and C-6 obtained in Example 112 and Example 113 were treated from 100 nM to 0.0001 nM, and the serial dilutions of drug seco-DUBA were treated from 100 nM to 0.001 nM. Serial dilutions of the compounds C-4 and C-9 obtained in Example 111 and Example 116 were treated from 1000 nM to 0.001 nM, and the serial dilutions of drug CBI dimer were treated by from 10 nM to 0.00001 nM. Serial dilutions of the compound C-8 obtained in Example 115 and the drug CBI-indole were treated from 100 nM to 0.0001 nM. After 72 hours, 96 hours, or 144 hours of incubation, 0.2 mL of 3-(4,5-dimethylthiazol-2-yl)-2,5-diphenyltetrazolium bromide (MTT) dye, dissolved in PBS buffer solution (5 mg/mL), was added to each well of the plates. The formazans formed by reduction of the MTT dye by mitochondrial oxidoreductases in the living cells were dissolved in DMSO, and measured using the absorbance at 550 nm.

Human β-galactosidase = molecular target: T1, Human β-galactosidase (Homo sapiens, UniProt P16278); assay: Enzymatic cleavage assay, Method 2; type: biochemical; conditions: recombinant enzyme; for Q part release t1/2(min): 100 μM
T1 construct: purchased R&D 6464-GH-020
T1 sequence (P16278 29-677): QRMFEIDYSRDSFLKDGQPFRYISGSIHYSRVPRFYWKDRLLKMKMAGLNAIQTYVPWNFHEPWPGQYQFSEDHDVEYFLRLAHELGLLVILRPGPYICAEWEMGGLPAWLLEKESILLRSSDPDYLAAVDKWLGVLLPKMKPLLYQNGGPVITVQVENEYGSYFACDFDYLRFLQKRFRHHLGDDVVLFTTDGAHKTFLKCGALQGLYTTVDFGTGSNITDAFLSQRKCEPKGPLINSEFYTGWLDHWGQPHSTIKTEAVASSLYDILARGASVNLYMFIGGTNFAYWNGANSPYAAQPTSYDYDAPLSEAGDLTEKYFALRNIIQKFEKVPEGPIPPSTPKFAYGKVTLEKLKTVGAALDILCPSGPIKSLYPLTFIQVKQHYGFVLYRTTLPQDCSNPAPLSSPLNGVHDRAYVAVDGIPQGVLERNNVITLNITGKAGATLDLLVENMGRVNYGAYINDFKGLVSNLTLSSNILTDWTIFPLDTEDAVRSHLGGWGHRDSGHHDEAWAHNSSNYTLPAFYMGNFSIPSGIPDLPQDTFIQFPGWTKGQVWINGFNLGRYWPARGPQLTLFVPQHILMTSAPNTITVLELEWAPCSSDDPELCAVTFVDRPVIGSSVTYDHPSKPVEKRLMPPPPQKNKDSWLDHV
Protocol: Method 2) Human β-galactosidase
MPS used as a standard material was prepared as a solution to have a concentration of 500 μM in PBS buffer solution. […] Then, 140 μL of 0.1 mg/mL enzyme solution was added thereto, thereby preparing an enzyme reaction solution in a total amount of 700 μL. The reaction mixture was incubated at 37° C. Human β-galactosidase enzyme (R&D 6464-GH-020) was used in the reaction mixture.

KB cancer cells [2] = assay: In vitro analysis of protein-drug conjugate, KB; type: cell-based; conditions: 96 hours, read-out: KB cell IC50
Protocol: KB cancer cells were collected and seeded in 24-well plates at a density of 30,000 cells per well in 2 mL of medium, and cultured for 24 hours. Then, the serial dilutions of compound C-1 obtained in Example 108 were treated from 30 nM to 0.0096 nM, the serial dilutions of compound C-2 obtained in Example 109 were treated from 1000 nM to 0.32 nM, serial dilutions of the compound C-3 obtained in Example 110 and the compound C-7 obtained in Example 114 were treated from 25 nM to 0.0016 nM, and serial dilutions of the drug MMAF-OMe were treated from 10 nM to 0.0097 nM. The serial dilutions of compounds C-5 and C-6 obtained in Example 112 and Example 113 were treated from 100 nM to 0.0001 nM, and the serial dilutions of drug seco-DUBA were treated from 100 nM to 0.001 nM. […] The formazans formed by reduction of the MTT dye by mitochondrial oxidoreductases in the living cells were dissolved in DMSO, and measured using the absorbance at 550 nm.
KB, SKBR-3, BT-474, NCI-N87 cancer cells were seeded in 96-well plates at a density of 2,000 to 8,000 cells per well in 100 μL of medium, and cultured for 24 hours. […] Experiments were performed in a similar manner to Test Example 3 to quantify living cells 96 hours later, and results are shown in Tables 4 and 5 below.

[3] = molecular target: Escherichia coli β-galactosidase (Escherichia coli, UniProt P00722); assay: in vitro; conditions: recombinant enzyme
Escherichia coli β-galactosidase, sequence (P00722 2-1024): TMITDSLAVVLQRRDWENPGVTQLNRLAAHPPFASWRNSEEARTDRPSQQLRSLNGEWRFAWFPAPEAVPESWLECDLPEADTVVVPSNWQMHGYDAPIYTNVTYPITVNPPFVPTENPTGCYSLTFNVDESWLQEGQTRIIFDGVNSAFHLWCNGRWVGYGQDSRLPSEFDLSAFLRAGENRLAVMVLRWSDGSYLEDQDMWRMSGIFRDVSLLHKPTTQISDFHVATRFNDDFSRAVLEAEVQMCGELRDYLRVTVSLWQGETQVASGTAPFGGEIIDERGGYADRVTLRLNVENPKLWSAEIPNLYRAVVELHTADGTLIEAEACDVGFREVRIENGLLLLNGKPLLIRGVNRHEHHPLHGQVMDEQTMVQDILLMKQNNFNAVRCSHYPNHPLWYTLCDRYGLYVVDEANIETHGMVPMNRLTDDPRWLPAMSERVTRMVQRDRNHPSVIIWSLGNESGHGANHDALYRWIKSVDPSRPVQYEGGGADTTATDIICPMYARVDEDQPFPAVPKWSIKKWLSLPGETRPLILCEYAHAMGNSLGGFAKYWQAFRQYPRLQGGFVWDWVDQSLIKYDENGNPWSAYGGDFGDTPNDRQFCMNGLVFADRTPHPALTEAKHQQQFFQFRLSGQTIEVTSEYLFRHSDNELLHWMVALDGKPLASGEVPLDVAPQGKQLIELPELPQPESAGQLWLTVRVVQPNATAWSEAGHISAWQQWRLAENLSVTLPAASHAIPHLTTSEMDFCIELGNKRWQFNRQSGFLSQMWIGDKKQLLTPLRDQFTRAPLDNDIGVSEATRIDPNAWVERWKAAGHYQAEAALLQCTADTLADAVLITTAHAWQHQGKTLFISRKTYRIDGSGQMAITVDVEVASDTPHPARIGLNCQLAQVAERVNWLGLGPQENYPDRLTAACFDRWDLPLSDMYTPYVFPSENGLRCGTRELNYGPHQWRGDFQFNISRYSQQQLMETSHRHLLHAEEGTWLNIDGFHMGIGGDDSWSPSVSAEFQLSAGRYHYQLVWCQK
Protocol: Method 1. Escherichia coli β-galactosidase
MPS used as a standard material was dissolved in PBS buffer solution to make 500 uM solution. […] This was followed by the addition of enzyme solution (14 μL of 1 mg/mL). When comparing with human β-galactosidase, 21 μL of enzyme solution (1 mg/mL) was added to achieve the same molar concentration, and the compound of the present invention and MPS each having an amount of 140 μL and […] of the buffer solution (pH 7.4) were mixed. The resulting reaction mixture was incubated at 37° C. Escherichia coli β-galactosidase enzyme (Sigma G4155) was used in the reaction mixture. The enzyme reaction solution was aliquoted at 0 min before the reaction and at a predetermined time after the reaction, respectively, wherein each aliquot was 70 μL. Then, the remaining compound of the present invention or MPS, and a material liberated by the enzyme reaction were quantitatively analyzed by HPLC.

[4] = MTT, 72 hours, 96 hours, or 144 hours of incubation, read-out: KB cell IC50

COc1cc2[nH]c(C(=O)N3C[C@@H](CCl)c4c3cc(OS(=O)(=O)Oc3cc(C(=O)NCCOCCOCCOCCn5cc(CCC(=O)N[C@H](CCCCN)C(=O)NCCOCCOCCNC(=O)CC[C@@H](NC(=O)c6ccc(NCc7cnc8nc(N)[nH]c(=O)c8n7)cc6)C(=O)O)nn5)ccc3O[C@@H]3O[C@H](CO)[C@H](O)[C@H](O)[C@H]3O)c3cccc(C)c43)cc2cc1OCCN(C)C [Compound C-8]
IC50 (KB cancer cells [1]; [4]): 0.12 nM

CC(C)(C)OC(=O)NC(Cc1ccc(OS(=O)(=O)Oc2ccccc2O[C@@H]2O[C@H](C(=O)O)[C@@H](O)[C@H](O)[C@H]2O)cc1)C(=O)O (stereo partly shown) [Compound A-3]
half-life at 100 μM (Human β-galactosidase; Method 2, pH 7.4, 37° C., HPLC, read-out: TG release t1/2(min)): 10.7 min

COc1cc2[nH]c(C(=O)N3C[C@@H](CCl)c4c3cc(O)c3cccc(C)c43)cc2cc1OCCN(C)C [CBI-indole, reference compound]
IC50 (KB cancer cells [1]; Homo sapiens, KB, read-out: KB cell IC50(nM)): 0.07 nM

CC(=O)Oc1cc2c(c3ccccc13)[C@H](CCl)CN2C(=O)CCCC(=O)N1C[C@@H](CCl)c2c1cc(OS(=O)(=O)Oc1cc(C(=O)NCCOCCOCCOCCn3cc(CCC(=O)N[C@H](CCCCN)C(=O)NCCOCCOCCNC(=O)CC[C@@H](NC(=O)c4ccc(NCc5cnc6nc(N)[nH]c(=O)c6n5)cc4)C(=O)O)nn3)ccc1O[C@@H]1O[C@H](CO)[C@H](O)[C@H](O)[C@H]1O)c1ccccc21 [Compound C-9]
IC50 (KB cancer cells [1]; [4]): 0.1 nM

CC[C@H](C)[C@@H]([C@@H](CC(=O)N1CCC[C@H]1[C@H](OC)[C@@H](C)C(=O)N[C@@H](Cc1ccccc1)C(=O)OC)OC)N(C)C(=O)[C@@H](NC(=O)[C@@H](NC)C(C)C)C(C)C [MMAF-OMe] (H-[NMeV]V[Dil][Dolaproine]F-OMe)
IC50 (KB cancer cells [1]; [4]): 0.35 ± 0.07 nM
IC50 (KB cancer cells [2]; values marked * (asterisk not explained)): 0.16 nM
IC50 (KB cancer cells [2]; values without asterisk): 0.44 nM

NCCCC[C@@H](NC(=O)CCc1cn(CCOCCOCCOCCNC(=O)c2ccc(O[C@@H]3O[C@H](CO)[C@H](O)[C@H](O)[C@H]3O)c(OS(=O)(=O)Oc3cc4c(c5ccccc35)[C@H](CCl)CN4C(=O)CCCC(=O)N3C[C@@H](CCl)c4c3cc(O[C@@H]3O[C@H](CO)[C@H](O)[C@H](O)[C@H]3O)c3ccccc43)c2)nn1)C(=O)NCCOCCOCCNC(=O)CC[C@@H](NC(=O)c1ccc(NCc2cnc3nc(N)[nH]c(=O)c3n2)cc1)C(=O)O [Compound C-4]
IC50 (KB cancer cells [1]; [4]): 0.02 nM

CCc1c2c(nc3ccc(OS(=O)(=O)Oc4cc(C(=O)NCCOCCOCCOCCn5cc(CCC(=O)N[C@H](CCCCN)C(=O)NCCOCCOCCNC(=O)CC[C@@H](NC(=O)c6ccc(NCc7cnc8nc(N)[nH]c(=O)c8n7)cc6)C(=O)O)nn5)ccc4O[C@@H]4O[C@H](CO)[C@H](O)[C@H](O)[C@H]4O)cc13)-c1cc3c(c(=O)n1C2)COC(=O)[C@]3(O)CC [Compound C-2]
IC50 (KB cancer cells [1]; [4]): > 500 nM

CCc1c2c(nc3ccc(OS(=O)(=O)Oc4cc(C(=O)NCCOCCOCCOCCN=[N+]=[N-])ccc4O[C@@H]4O[C@H](CO)[C@H](O)[C@H](O)[C@H]4O)cc13)-c1cc3c(c(=O)n1C2)COC(=O)[C@]3(O)CC [Compound B-2]
half-life at 100 μM ([3]; pH 5): 5.75 min
half-life at 100 μM ([3]; pH 7.4): 0.28 min
Q part release t1/2(min) (Human β-galactosidase; pH 5): 39.41 min
Q part release t1/2(min) (Human β-galactosidase; pH 7.4): 112.2 min
half-life at 100 μM (Human β-galactosidase; pH 5): 5.33 min

Cc1cccc2c(O)cc3c(c12)[C@H](CCl)CN3C(=O)c1cn2cc(NC(=O)c3ccc(O)cc3)ccc2n1 [Seco-DUBA, reference compound]
IC50 (KB cancer cells [1]; Homo sapiens, KB, MTT, 72 hours, 96 hours, or 144 hours of incubation, read-out: KB cell IC50): 0.18 nM

NCCCC[C@@H](NC(=O)CCc1cn(CCOCCOCCOCCNC(=O)c2ccc(O[C@@H]3O[C@H](CO)[C@H](O)[C@H](O)[C@H]3O)c(OS(=O)(=O)Oc3cc4c(c5ccccc35)[C@H](CCl)CN4C(=O)c3cn4cc(NC(=O)c5ccc(O)cc5)ccc4n3)c2)nn1)C(=O)NCCOCCOCCNC(=O)CC[C@@H](NC(=O)c1ccc(NCc2cnc3nc(N)[nH]c(=O)c3n2)cc1)C(=O)O [Compound C-6]
IC50 (KB cancer cells [1]; [4]): 0.45 nM
